Measured values as given in patent US9801917B2, “Composition for improving blood sugar metabolism” (SUNSTAR INC., priority 2013, dated 2017).

Tests used:
[1] = test system: mouse skeletal myotube cell line (C2C12 cells); test: Measurement of sugar uptake-promoting activity (6-NBDG uptake) using skeletal myotube cells; format: cell-based; conditions: for sugar uptake-promoting activity (in words): 0.01 mass %, compared with extract C
Method: Mouse skeletal myoblasts (C2C12 cells) were cultured in high-glucose DMEM (5790), and the cells were seeded and cultured in a black microtiter plate (produced by Falcon) at a concentration of 5000 cells/200 μL/well. The cells differentiated into myotubes were used for this experiment. Extract A and extract C obtained in the above Production Example 1 and adjusted to final concentrations of 0.02% and 0.05% were used as samples (Examples 2-1 to 2-4). A medium without any addition (Comparative Example 2-1) was used as a negative control. A medium containing insulin (10 nM) (Comparative Example 2-2) was used as a positive control.
On the day of the experiment, after the media were replaced with low-glucose DMEM (6047), starvation was performed. The media were then replaced with media containing the samples of Examples 2-1 to 2-4 and Comparative Examples 2-1 to 2-2 dissolved therein, and incubation was performed for 60 minutes. After the treatment, the media were removed and replaced with low-glucose DMEM containing 100 μM of a fluorescently labeled nonhydrolyzable sugar analog, 6-(N-(7-nitrobenz-2-oxa-1,3-diazol-4-yl)amino)-6-deoxyglucose (6-NBDG; produced by Invitrogen) dissolved therein. After the reaction was allowed to proceed for 30 minutes, the medium was removed. After washing with PBS, the fluorescence was measured at 444 nm/538 nm emission using a fluorescent plate reader.
The sugar uptake-promoting activity, in skeletal myotube cells, of each of extract C (Example 3-1) obtained in the above Production Example 1, and fractions A to C and insoluble matter (Example 3-5) obtained in the above Production Example 2 (Examples 3-2 to 3-4) was measured in the same manner as in Test Example 1-2. Further, as in Test Example 1-2, a medium with no addition was used as a negative control (Comparative Example 3-1), and a medium containing insulin (10 nM) (Comparative Example 3-2) was used as a positive control. The samples of Examples 3-1 to 3-5 were adjusted to a final concentration of 0.02 mass %.
The sugar uptake-promoting activity, in skeletal myotube cells, of extract C obtained in the above Production Example 1 (Example 4-1) and seven compounds known to be contained in persimmon leaves (Example 4-2 to 4-8), i.e., kaempferol-3-O-glucoside, quercetin-3-O-glucoside, quercetin-3-O-galactoside, (+)-catechin, epigallocatechin gallate, rutin, and gallic acid was measured in the same manner as in Test Example 1-2. Further, as in Test Example 1-2, a medium with no addition was used as a negative control (Comparative Example 4-1), and a medium with insulin (10 nM) was used as a positive control (Comparative Example 4-2). The samples obtained in Example 4-1 to 4-8 were adjusted to a final concentration of 0.01 mass %.
The sugar uptake-promoting effects of extract C obtained in the above Production Example 1 (Example 5-1), fraction B obtained in the above Production Example 2 (Example 5-2), and fractions F to L (Examples 5-3 to 5-9) obtained in the above Production Example 3 on skeletal myotube cells were measured in the same manner as in Test Example 2. A medium with no addition was used as a negative control (Comparative Example 5-1), and media with insulin (10 nM) (Comparative Example 5-2), with insulin (100 nM) (Comparative Example 5-3), and with AICAR (final concentration: 3 mM) (Comparative Example 5-4) were used as positive controls. The samples of Examples 5-1 to 5-9 were adjusted to a final concentration of 0.02 mass %. […]

AMP kinase = test: Measurement of AMP kinase phosphorylation activity (Western blot pAMPK/tAMPK) in C2C12 cells; format: cell-based, mouse; conditions: Test Example 1-1; positive control, final concentration 2 mM; relative value, negative control = 1
Method: Persimmon leaf extracts A to E (powders) that had been dissolved in media to a final concentration of 0.02% were used as samples (Examples 1-1 to 1-5). A medium without any addition was used as a negative control (Comparative Example 1-1). A medium containing AICAR (final concentration: 2 mM) was used as a positive control (Comparative Example 1-2). Subsequently, a mouse skeletal myotube cell line (C2C12 cells) was seeded onto a 6-well cell culture plate and cultured in a DMEM medium containing 10% fetal bovine serum and a 1% antibacterial agent at 37° C., 5% carbon dioxide for 3 days.
When the cells became confluent, the medium was replaced with a DMEM medium containing 1% fetal bovine serum, and the cells were further cultured and fully differentiated. After the medium was again replaced with a fresh medium, the samples of Examples 1-1 to 1-5 and Comparative Examples 1-1 to 1-2 were added, and the cells were cultured at 37° C., 5% carbon dioxide. […]
The cell lysate was sonicated and then centrifuged to obtain a supernatant. […] The protein concentration of each supernatant was measured. […]
Western blotting was performed in the following manner. […] Chemiluminescence was detected using a CCD camera imager (produced by GE Healthcare). The degree of the activity was expressed as a relative value with the value of the negative control being defined as 1.

[2] = Test Example 3, final concentration 0.01 mass %, control = 1.00

| Molecule | Relative fluorescence intensity [1, 2] | sugar uptake-promoting activity (in words) ([1]; Test Example 3) | also measured |
| --- | --- | --- | --- |
| Oc1cc(O)c2c(c1)O[C@H](c1ccc(O)c(O)c1)[C@@H](O)C2 [(+)-catechin] | 1.09 | – | – |
| NC(=O)c1ncn([C@@H]2O[C@H](CO)[C@@H](O)[C@H]2O)c1N [AICAR] | – | – | pAMPK/tAMPK ratio (AMP kinase): 5.60; Relative fluorescence intensity ([1]; Test Example 4, positive control 3 mM, control = 1.00): 1.96 |
| O=C(O[C@@H]1Cc2c(O)cc(O)cc2O[C@@H]1c1cc(O)c(O)c(O)c1)c1cc(O)c(O)c(O)c1 [Epigallocatechin gallate, epigallocatechin gallate] | 1.70 | as high as Example 4-1 | – |
| O=C(O)c1cc(O)c(O)c(O)c1 [Gallic acid, gallic acid] | 1.69 | as high as Example 4-1 | – |
| O=c1c(O[C@@H]2O[C@H](CO)[C@@H](O)[C@H](O)[C@H]2O)c(-c2ccc(O)cc2)oc2cc(O)cc(O)c12 [Kaempferol-3-glucoside, kaempferol-3-O-glucoside] | 0.91 | – | – |
| O=c1c(O[C@@H]2O[C@H](CO)[C@H](O)[C@H](O)[C@H]2O)c(-c2ccc(O)c(O)c2)oc2cc(O)cc(O)c12 [Quercetin-3-galactoside, quercetin-3-O-galactoside] | 0.70 | – | – |
| O=c1c(O[C@@H]2O[C@H](CO)[C@@H](O)[C@H](O)[C@H]2O)c(-c2ccc(O)c(O)c2)oc2cc(O)cc(O)c12 [Quercetin-3-glucoside, quercetin-3-O-glucoside] | 2.26 | as high as Example 4-1 | – |
| C[C@@H]1O[C@@H](OC[C@H]2O[C@@H](Oc3c(-c4ccc(O)c(O)c4)oc4cc(O)cc(O)c4c3=O)[C@H](O)[C@@H](O)[C@@H]2O)[C@H](O)[C@H](O)[C@H]1O [Rutin, rutin] | 0.91 | – | – |
| insulin | – | – | Relative fluorescence intensity ([1]; Test Example 1-2, positive control 10 nM, no addition = 1.00): 1.32; Relative fluorescence intensity ([1]; Test Example 2, positive control 10 nM, no addition = 1.00): 1.25; Relative fluorescence intensity ([1]; Test Example 3, positive control 10 nM, control = 1.00): 1.43; Relative fluorescence intensity ([1]; Test Example 4, positive control 10 nM, control = 1.00): 1.62; Relative fluorescence intensity ([1]; Test Example 4, positive control 100 nM, control = 1.00): 1.74 |
